# “Also recorded” adds a separate entry of the source.
# Experiments:
# Histomonas meleagridis [1] = conditions: cited from earlier work
# Histomonas meleagridis [2] = experiment: Prophylaxis of histomoniasis in turkey poults inoculated intracloacally, apramycin in feed (Example 1); assay type: in vivo; conditions: live weight at the end of the study; 550 g/MT of feed, turkeys
# Histomonas meleagridis [3] = conditions: turkeys; cited from earlier work
# Histomonas meleagridis [4] = experiment: Prophylaxis of histomoniasis in turkey poults inoculated intracloacally, apramycin in feed (Example 1); assay type: in vivo, turkeys
# Description: The objective of the study was to investigate the activity of apramycin as prophylactic agent against a Histomonas meleagridis strain isolated from an outbreak of histomoniasis in turkeys in Belgium (September 2005). The antibiotic (apramycin) was supplemented through the feed at 550 g of the test product/MT of feed (Ap 550) in the challenged birds. This medicated group was compared with an Infected Untreated Control (IUC) and an Uninfected Untreated Control group (UUC).
# Seventy five (75) one day old male animals (turkey poults) were enrolled in the study and randomly allocated to 3 groups of 25 animals per pen. During the whole study (from day 1 to day 38), Treatment 1 (UUC) and 2 (IUC) received standard animal (turkey) feed without supplementation, whereas Treatment 3, received feed supplemented with apramycin sulphate. On day 22, Treatments 2 and 3 were inoculated intracloacally with Histomonas meleagridis. From that day one, the animals were clinically observed on a daily base. At the end of the study, D38, all remaining animals were euthanized and necropsied and lesion scored for caeca and liver.
# All animals (turkeys) died during the challenge period were necropsied to determine the cause of death. […] (see Table 1 and FIG. 1).
# [5] = 300 ppm, inoculated broiler chickens
# [6] = necropsy, 550 g/MT of feed, turkeys
smiles,measurement,setting,value
"CN[C@@H]1[C@@H](O[C@H]2O[C@H](CO)[C@@H](N)[C@H](O)[C@H]2O)OC2C[C@@H](N)[C@@H](O[C@H]3[C@H](O)[C@@H](O)[C@H](N)C[C@@H]3N)OC2[C@@H]1O (stereo partly drawn) [Ap 550, Apramycin]",In-vivo use against histomoniasis (in words),Histomonas meleagridis [1]; 300 ppm in broilers,ineffective
same,Weight gain (in words),Histomonas meleagridis [1]; 300 ppm in broilers,no amelioration
same,Caecal histomoniasis lesions (in words),Histomonas meleagridis [1]; [5],No amelioration
same,Liver lesions / liver lesion scores (in words),Histomonas meleagridis [1]; [5],some reduction
same,Average Weight at D40,Histomonas meleagridis [2],1.40 kg
same,Treatment effect on histomoniasis (in words),Histomonas meleagridis [3],No significant treatment effect
same,Mortality due to histomoniasis (% Cumulative),"Histomonas meleagridis [4]; D 7 PI, 550 g/MT of feed, turkeys",0.00%
same,Mortality due to histomoniasis (% Cumulative),"Histomonas meleagridis [4]; D 8 PI, 550 g/MT of feed, turkeys",0.00%
same,Mortality due to histomoniasis (% Cumulative),"Histomonas meleagridis [4]; D 9 PI, 550 g/MT of feed, turkeys",0.00%
same,Mortality due to histomoniasis (% Cumulative),"Histomonas meleagridis [4]; D 10 PI, 550 g/MT of feed, turkeys",0.00%
same,Mortality due to histomoniasis (% Cumulative),"Histomonas meleagridis [4]; D11 PI, 550 g/MT of feed, turkeys",0.00%
same,Mortality due to histomoniasis (% Cumulative),"Histomonas meleagridis [4]; D 12 PI, 550 g/MT of feed, turkeys",0.00%
same,Mortality due to histomoniasis (% Cumulative),"Histomonas meleagridis [4]; D 13 PI, 550 g/MT of feed, turkeys",0.00%
same,Mortality due to histomoniasis (% Cumulative),"Histomonas meleagridis [4]; D 14 PI, 550 g/MT of feed, turkeys",0.00%
same,Mortality due to histomoniasis (% Cumulative),"Histomonas meleagridis [4]; D 15 PI, 550 g/MT of feed, turkeys",0.00%
same,Mortality due to histomoniasis (% Cumulative),"Histomonas meleagridis [4]; D 16 PI, 550 g/MT of feed, turkeys",0.00%
same,Mortality during the challenge period (in words),"Histomonas meleagridis [4]; inoculated turkeys, apramycin continuously in the feed",significant effect in reducing the mortality; also recorded: not a single animal died
same,"Mean lesion score at necropsy, Caecum score",Histomonas meleagridis [4]; [6],0.45
same,"Mean lesion score at necropsy, Liver score",Histomonas meleagridis [4]; [6],0.00
same,Protection against the infection by Histomonas meleagridis (in words),"Histomonas meleagridis [4]; turkeys, 550 g/MT of feed",does provide active protection
same,Liver and caecal lesion scores (in words),"Histomonas meleagridis [4]; turkeys, apramycin continuously in the feed",reduced significantly

# Reference: patent US8299037B2, “Feed or pharmaceutical composition comprising apramycin or an adequate salt thereof” (Poulpharm B.V.B.A., priority 2007, dated 2012)
